Assay results published in PMC10288505, “Photoswitchable Calixarene Activators for Controlled Peptide Transport across Lipid Membranes” (Journal of the American Chemical Society, 2023).

Experiments:
R3 = test: Indicator displacement assay with host:LCG reporter pair, guest R3; type: binding; details: association constant, competitive dye displacement with LCG, 5 mM phosphate buffer pH 7.3, mean ± SD of triplicate
Text: (§1) The binding affinity of the anionic calixarene activators toward cationic peptides was investigated using a small library of highly hydrophilic oligoarginines, from 3 to 8 residues. These peptides are not able to spontaneously transverse zwitterionic artificial membranes in vesicle assays, which allows the accurate evaluation of the calixarenes 1 and 2 as counterion activators without interferences from the transport of the peptide alone.[43]−[45] First, the formation of host–guest complexes between 1/2 and the selected peptides was verified by indicator displacement assays using lucigenin (LCG) as the fluorescent indicator.[46] As previously reported for other sulfonatocalixarene derivatives,[46] the formation of host–guest binding pairs between calixarenes 1/2 in the E- and Z-forms and LCG results in significant static fluorescence quenching (see Figure 2A and Figures S26 and S27). Quantitative analysis of the fluorescence titration data using a 1:1 host:guest binding model allows the determination of the respective binding constants (K) reported in Table 1. As can be observed, both 1/2 display high affinity for the LCG dye, on the 10^7 M^–1 range, which seems to be independent of the nature and conformation of the azobenzene arm. […] The host:LCG binding pairs were then employed in the above-mentioned indicator displacement assays to investigate the binding affinity of oligoarginines toward 1 and 2 (see Figure 2B and Figures S29–S33).
(§2) The binding affinities of the counterion activators and peptide complexes were analyzed by indicator displacement assays. The fluorescent dye chosen for these experiments was lucigenin (LCG) due to its complex with the receptor SC4 being well characterized and due to the high variation of emission between its bound and free form. Firstly, the affinity for LCG was calculated for each of the activators, by titrations followed by fluorescence spectroscopy leading to almost full quenching of the emission. For the competitive assays, a concentration of LCG and activator was chosen in order to have approximately 90% of complexed dye and that mixture was then titrated with each of the peptides, leading to the regaining of emission when LCG was release from the complex.
(§3) Figure S26 - Fluorescence titration of the lucigenin dye with increasing concentrations of A) E-1 and B) Z–1 in water (5 mM phosphate buffer pH 7.3). LCG concentration was fixed 0.2 µM in all experiments, except for the first E-1 titrations were [LCG]
(§4) (1 picture or pasted object on this page, not shown here)
(§5) Figure S29 - Indicator displacement titration of the several oligoarginines A) R3 B) R4 C) R6 and D) R8, using SC4:LCG as the reporter pair (5 mM phosphate buffer pH 7.3). LCG and SC4 concentrations were fixed at A) 0.22 and 0.50 µM, for all three replicates, B) 0.22 and 4.7 µM for the first titration and 0.22 and 4.3 µM for the remaining two replicates, C) 0.22 and 0.45 µM and 1.1 and 0.85 µM and D) 0.28 and 0.43 µM and 1.1 and 0.85 µM, respectively, from left to right.
(§6) Figure S30 - Indicator displacement titration of the several oligoarginines A) R3 B) R4 C) R6 and D) R8, using E-1:LCG as the reporter pair (5 mM phosphate buffer pH 7.3) LCG and E-1 concentrations were fixed at A) 0.11 and 0.25 µM, for all three replicates, B) 0.22 and 0.5 µM, for the first two titrations and 0.22 and 0.23 µM for the remaining replicate, C) 4.0 and 3.8 µM and 0.22 and 0.5 µM, D) 4 and 3 µM and 0.22 and 0.5 µM, respectively, from left to right. […]

[1] = Photochemical characterisation (UV–vis absorption, 1H NMR) and thermal Z→E isomerization; type: physicochemical; details: for Fraction of E isomer in the photostationary state (PSS): irradiation of the Z-forms at 500 nm; for Thermal stability of the Z isomer: room temperature, time frame of the experiments
Text: The photochromic properties of 1 and 2 were investigated in diluted aqueous solution by UV–vis absorption spectroscopy and in CD3OD by ^1H NMR.
On the other hand, irradiation of the Z-forms at λirr = 500 nm originates a photostationary state (PSS) composed of 70 and 80% of E-1 (Φ1Z → E = 0.6) and E-2 (Φ2Z → E = 0.5), respectively (Figure 1 and Figure S23). As generally observed for other azobenzene photoswitches,[42] the E isomers can be quantitatively recovered in the dark through the thermal Z → E isomerization, with 1 and 2 presenting activation energies of 215 and 93 kJ/mol, respectively (Figures S24 and S25).

[2] = Fluorescence titration of lucigenin dye with calixarene host (1:1 binding model); details: association constant, 1:1 host:guest model, 5 mM phosphate buffer pH 7.3, mean ± SD of triplicate
Text: as §1
Figure 2 (A) Fluorescence titration of the lucigenin dye (LCG, 1.5 μM) with increasing concentrations of E-2 in water (5 mM phosphate buffer, pH 7.3). (B) Indicator displacement titration of hexaarginine (R6) using E-2:LCG as the reporter pair (5 mM phosphate buffer, pH 7.3). LCG and E-2 concentrations were fixed at 4 and 4.3 μM, respectively. […]
The binding affinities of the counterion activators and peptide complexes were analyzed by indicator displacement assays. […] Firstly, the affinity for LCG was calculated for each of the activators, by titrations followed by fluorescence spectroscopy leading to almost full quenching of the emission. […]
Figure S26 - Fluorescence titration of the lucigenin dye with increasing concentrations of A) E-1 and B) Z–1 in water (5 mM phosphate buffer pH 7.3). […]
Figure S27 - Fluorescence titrations of the lucigenin dye (LCG, 0.2 µM, except for the first E-2 titration were [LCG] = 1.5 µM ) with increasing concentrations of (A) E-2 and (B) Z-2 in water (5 mM phosphate buffer pH 7.3). […]
Figure S28 - Fluorescence titrations of the lucigenin dye (LCG, 0.2 µM) with increasing concentrations of SC4 in water (5 mM phosphate buffer pH 7.3). […]

R4 = test: Indicator displacement assay with host:LCG reporter pair, guest R4; type: binding; details: association constant, competitive dye displacement with LCG, 5 mM phosphate buffer pH 7.3, mean ± SD of triplicate
Text: as §1, §2, §3, §4, §5, §6

SMILES | Apparent affinity constant K for R3 (R3) | Fraction of E isomer in the photostationary state (PSS) [1] | Apparent affinity constant K for LCG [2] | Apparent affinity constant K for R4 (R4) | Thermal stability of the Z isomer [1]
CCCCc1ccc(/N=N/c2ccc(OCCCOc3c4cc(S(=O)(=O)[O-])cc3Cc3cc(S(=O)(=O)[O-])cc(c3O)Cc3cc(S(=O)(=O)[O-])cc(c3O)Cc3cc(S(=O)(=O)[O-])cc(c3O)C4)cc2)cc1.[Li+].[Li+].[Li+].[Li+] [E-2] | (4.1 ± 0.2) × 10^6 M^–1 | 80% | (2.6 ± 0.7) × 10^7 M^–1 | (1.2 ± 0.6) × 10^8 M^–1 | 
O=S(=O)([O-])c1cc2c(O)c(c1)Cc1cc(S(=O)(=O)[O-])cc(c1O)Cc1cc(S(=O)(=O)[O-])cc(c1OCCCCCCOc1ccc(/N=N/c3ccccc3)cc1)Cc1cc(S(=O)(=O)[O-])cc(c1O)C2.[Li+].[Li+].[Li+].[Li+] [E-1] | (2.6 ± 0.8) × 10^6 M^–1 | 70% | (2.5 ± 0.7) × 10^7 M^–1 | (3.9 ± 0.3) × 10^7 M^–1 | 
O=S(=O)([O-])c1cc2c(O)c(c1)Cc1cc(S(=O)(=O)[O-])cc(c1O)Cc1cc(S(=O)(=O)[O-])cc(c1OCCCCCCOc1ccc(/N=N\c3ccccc3)cc1)Cc1cc(S(=O)(=O)[O-])cc(c1O)C2.[Li+].[Li+].[Li+].[Li+] [Z-1] | (2.4 ± 0.6) × 10^6 M^–1 |  | (2.3 ± 0.4) × 10^7 M^–1 | (3.2 ± 0.7) × 10^7 M^–1 | minimal thermal interconversion at room temperature
CCCCc1ccc(/N=N\c2ccc(OCCCOc3c4cc(S(=O)(=O)[O-])cc3Cc3cc(S(=O)(=O)[O-])cc(c3O)Cc3cc(S(=O)(=O)[O-])cc(c3O)Cc3cc(S(=O)(=O)[O-])cc(c3O)C4)cc2)cc1.[Li+].[Li+].[Li+].[Li+] [Z-2] | (3.6 ± 0.3) × 10^6 M^–1 |  | (3.4 ± 0.8) × 10^7 M^–1 | (7.8 ± 1.3) × 10^7 M^–1 | minimal thermal interconversion at room temperature
